According to publication PMC4887496, “The Mouthparts Enriched Odorant Binding Protein 11 of the Alfalfa Plant Bug Adelphocoris lineolatus Displays a Preferential Binding Behavior to Host Plant Secondary Metabolites” (Frontiers in Physiology, 2016):

Molecular target: T1, recombinant AlinOBP11 (Adelphocoris lineolatus, UniProt F4Y5P9)
Experiment: biochemical
Assay type: binding
Settings: not given

T1 sequence (F4Y5P9 entry or part of it): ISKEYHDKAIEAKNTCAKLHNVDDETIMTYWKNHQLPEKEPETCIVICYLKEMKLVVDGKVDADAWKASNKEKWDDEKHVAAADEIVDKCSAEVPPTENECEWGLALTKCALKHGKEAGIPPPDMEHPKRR

Row | Compound | IC50 [µM] | Ki [µM]
1 | CCCCCCO [1-Hexanol] | > 30 | 
2 | CCCCC(C)=O [2-Hexanone] | > 30 | 
3 | CC(=O)CCC=C(C)C [6-Methyl-5-hepten-2-one] | > 30 | 
4 | CC(=O)c1ccccc1 [Acetophenone] | > 30 | 
5 | O=Cc1ccccc1 [Benzaldehyde] | > 30 | 
6 | CCCC(=O)OCC [Ethyl butyrate] | > 30 | 
7 | Cc1cc2c(C(C)C)c(O)c(O)c(C=O)c2c(O)c1-c1c(C)cc2c(C(C)C)c(O)c(O)c(C=O)c2c1O [Gossypol] | 4.45 ± 0.34 | 3.43 ± 0.32
8 | CCCCCCC=O [Heptanal] | > 30 | 
9 | CCCCCC=O [Hexanal] | > 30 | 
10 | c1ccc2[nH]ccc2c1 [Indole] | > 30 | 
11 | COC(=O)c1ccccc1O [Methyl salicylate] | > 30 | 
12 | CC/C=C\CCO [cis-3-Hexen-1-ol] | > 30 | 
13 | CCC/C=C/C=O [trans-2-Hexenal] | > 30 | 
14 | CC1=CC[C@H](C(C)C)C=C1 [α-Phellandrene] | 26.2 ± 0.52 | 20.1 ± 0.41
15 | C=C1CC/C=C(\C)CC[C@@H]2[C@@H]1CC2(C)C [β-Caryophyllene] | > 30 | 
16 | CC(=O)/C=C/C1=C(C)CCCC1(C)C [β-Ionone] | > 30 | 
17 | C=C1CCC2CC1C2(C)C (stereo not drawn) [β-Pinene] | > 30 | 

Same assay, conditions: 2 μM protein, 2 μM 1-NPN, 50 mM Tris-HCl pH 7.4, competitor 2 to 30 μM, 25°C; read-out: IC50 (μM) AlinOBP11

Row | IC50 [µM] | Compound
18 | 27.2 ± 0.71 | C=CC(C)(O)CCC=C(C)CCC=C(C)C (mixture of isomers) [Nerolidol]
19 | > 30 | CCCCCC(C)=O [2-Heptanone]
20 | > 30 | CCCCC(C)O (stereo not shown) [2-Hexanol]
21 | > 30 | CCCCCCC(C)=O [2-Octanone]
22 | > 30 | Cc1ccc(C=O)cc1C [3,4-Dimethyl-benzaldehyde]
23 | > 30 | CCCC(=O)CC [3-Hexanone]
24 | 19.3 ± 0.93 | Oc1cc(O)c2c(c1)O[C@@H](c1ccc(O)c(O)c1)[C@H](O)C2 [(−)-Catechin]
25 | > 30 | CCCCCOC(C)=O [Amyl acetate]
26 | > 30 | CCCCOC(=O)CCC [Butyl butyrate]
27 | > 30 | C=C/C(C)=C/CC=C(C)C [E-β-Ocimene]
28 | > 30 | CCCCCCOC(=O)CCC [Hexyl butyrate]
29 | > 30 | CCCCCCOC(=O)CCCCC [Hexyl hexanoate]
30 | > 30 | C=CC(=C)CCC=C(C)C [Myrcene]
31 | > 30 | CCCCCCCCC=O [Nonanal]
32 | > 30 | CCCCCCCCCOC(C)=O [Nonyl acetate]
33 | > 30 | CCCCCCCC=O [Octanal]
34 | > 30 | CCCCCO [Pentanol]
35 | > 30 | CCCCCCCCCCC [Undecane]
36 | > 30 | CCCCC=O [Valeraldehyde]
37 | > 30 | CC/C=C\CCOC(C)=O [cis-3-hexenyl acetate]
38 | > 30 | CCC/C=C/COC(=O)CCC [trans-2-hexenyl butyrate]

Row | Compound | IC50 [µM]
39 | C=C(C)[C@H]1CC=C(C)CC1 [Limonene] | > 30
40 | C[C@@H]1O[C@@H](OC[C@H]2O[C@@H](Oc3c(-c4ccc(O)c(O)c4)oc4cc(O)cc(O)c4c3=O)[C@H](O)[C@@H](O)[C@@H]2O)[C@H](O)[C@H](O)[C@H]1O.O [Rutin hydrate] | 9.89 ± 1.61
41 | CC(C)=CCC/C(C)=C/CC/C(C)=C/CO [trans,trans-Farnesol] | 25.2 ± 2.36
42 | C=CC(=C)CC/C=C(\C)CCC=C(C)C [trans-β-Farnesene] | > 30
43 | C/C1=C\CC/C(C)=C/CC(C)(C)/C=C/C1 [α-Humulene] | > 30
44 | (+)-α-Pinene | > 30

Same assay, conditions: […]; 2 μM protein, 2 μM 1-NPN, pH 7.4; read-out: Ki (μM) AlinOBP11

Row | Ki [µM] | Compound
45 | 15.3 ± 0.7 | Oc1cc(O)c2c(c1)O[C@@H](c1ccc(O)c(O)c1)[C@H](O)C2 [(−)-Catechin]

Same assay, conditions: calculated from IC50: Ki = [IC50]/(1+[1-NPN]/K1-NPN); 2 μM protein, 2 μM 1-NPN, pH 7.4; read-out: Ki (μM) AlinOBP11

Row | Compound | Ki [µM]
46 | C=CC(C)(O)CCC=C(C)CCC=C(C)C (mixture of isomers) [Nerolidol] | 20.8 ± 0.55
47 | C[C@@H]1O[C@@H](OC[C@H]2O[C@@H](Oc3c(-c4ccc(O)c(O)c4)oc4cc(O)cc(O)c4c3=O)[C@H](O)[C@@H](O)[C@@H]2O)[C@H](O)[C@H](O)[C@H]1O.O [Rutin hydrate] | 7.78 ± 1.23
48 | CC(C)=CCC/C(C)=C/CC/C(C)=C/CO [trans,trans-Farnesol] | 19.3 ± 1.78

Tested on: AlucOBP36
Experiment: not given
Design: method as in Hua et al., 2012
Settings: antennae expressed AlucOBP36; ref Hua et al., 2012; cited from earlier work

Row | Compound | binding abilities to AlucOBP36 (in words)
49 | C[C@@H]1O[C@@H](OC[C@H]2O[C@@H](Oc3c(-c4ccc(O)c(O)c4)oc4cc(O)cc(O)c4c3=O)[C@H](O)[C@@H](O)[C@@H]2O)[C@H](O)[C@H](O)[C@H]1O.O [Rutin hydrate] | better binding abilities

Molecular target: T1, recombinant AlinOBP11
Experiment: Binding of fluorescent probe 1-NPN to recombinant AlinOBP11 (fluorescence titration, Scatchard plot)
Settings: 2 μM protein in 50 mM Tris-HCl pH 7.4, 1-NPN 1 to 16 μM; read-out: dissociation constant of the AlinOBP11/1-NPN complex

Row | Compound | Kd [µM]
50 | c1ccc(Nc2cccc3ccccc23)cc1 [1-NPN, N-phenyl-1-naphthylamine] | 5.86 ± 0.47
